The record followed here is PubChem BioAssay AID504322 (Emory University Molecular Libraries Screening Center, 2011).

pIC50: −log10 of the molar value. Calls of active or inactive are those of the source. No rule for the calls is given here.

For this assay, the system named is CHOP reporter cell assay, percent of control. Nature of the assay: CHOP reporter inhibitor potency, dose response, cell-based (AID 504322).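 Also: CHO cells carrying a CHOP reporter stimulated with tunicamycin to induce ER stress; potency is for inhibition of the stress-induced reporter signal.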

With `CCNc1nc(Oc2c(Cl)cccc2Cl)cc(C(F)(F)F)n1`, the pIC50 is 5.56.

Turning to `Cc1cc(Nc2cccc([N+](=O)[O-])c2)n2c(nc3ccccc32)c1C#N`, the IC50 was 4.08 µM (inactive).

With `Cc1cc(C(=O)CCl)c(C)n1-c1cccc(S(=O)(=O)N2CCOCC2)c1`, the IC50 is > 10 µM (inactive).

With `CC(=O)OC[C@]12CCC(C)=C[C@H]1O[C@@H]1[C@H](O)[C@@H](OC(C)=O)[C@@]2(C)[C@]12CO2`, the IC50 is < 0.16 µM (inactive).

Turning to `CN(C)c1ccc(-c2nc3ccccn3c2/N=C/c2ccc(Br)cc2)cc1`, the pIC50 is 5.15.

Turning to `Cc1cccc(NCC(=O)N/N=C\c2cccc(Oc3ccccc3)c2)c1`, the IC50 is 8.02 µM (inactive).

Consider `N#CC1=C(N)N2C(=C(C#N)C1c1cccc(Br)c1)Nc1ccccc12` (configuration not stated), for which the IC50 is 5.07 µM (inactive).

Take `CCOc1ccc(C(=O)C(CCC(CN(C)C)C(=O)c2ccc(OCC)cc2)CN(C)C)cc1` (configuration not stated): the IC50 is 9.69 µM (inactive).

As for `Cc1cc(/C=N/n2cnnc2)c(C)n1-c1ccc(OCc2ccc(Cl)cc2Cl)cc1`, the IC50 is < 0.16 µM (inactive).

`CC1=C(C)/C(=N\OS(=O)(=O)c2ccc(C)cc2)C=CC1=O`: the IC50 was 3.68 µM (inactive).

As for `CCOC(=O)CCS(=O)(=O)c1nc(-c2ccccc2)cc(C(F)(F)F)n1`, the pIC50 is greater than 6.80.

For `COC(=O)c1sc(-c2ccc(C(C)(C)C)cc2)cc1NC(=O)c1ccccc1C(=O)O`, the IC50 is 8.29 µM (inactive).

Turning to `COc1cc2c(cc1OC)C(c1ccccc1)N(C(=O)CCl)CC2` (configuration not stated), the IC50 is 9.53 µM (inactive).

Consider `CCc1nc2c(cnn2-c2ccc(Cl)cc2)c(=O)n1-c1ccc(OC)cc1`, for which the IC50 is 8.14 µM (inactive).

As for `COC(=O)c1ccc2c(=O)n(CCCCCC(=O)N3CCN(c4ccccc4)CC3)c(=O)[nH]c2c1`, the IC50 was 9.65 µM (inactive).

As for `CCOC(=O)C(NC(=O)Nc1cccc(C)n1)(OCC(F)(F)F)C(F)(F)F` (configuration not stated), the IC50 was > 10 µM (inactive).

On to `O=S1(=O)C=C(Sc2nc3ccccc3s2)c2ccccc21`, for which the pIC50 is 5.90.

Consider `CCC(C)(C)NC(=O)C(c1cccn1C)N(C(=O)Cn1nnc2ccccc21)c1ccc(F)cc1` (configuration not stated), for which the IC50 was > 10 µM (inactive).

On to `CCOC(=O)c1cnc(-n2nc(C)cc2C)nc1NC1CCCCC1`, for which the IC50 was > 10 µM (inactive).

Take `Cc1ccc(C(C(=O)NC2CCCCC2)N(C(=O)Cc2c[nH]c3ccccc23)c2ccccc2C)o1` (configuration not stated): the IC50 was > 10 µM (inactive).

Regarding `CN=C1SC(CC(=O)Nc2ccc(F)cc2F)C(=O)N1/N=C/c1ccc(OC(F)F)c(OC)c1` (configuration not stated), the IC50 was 9.78 µM (inactive).

Take `CCOC(=O)C1=C(C)NC(C)=C(C(=O)OCC)C1/C=C/c1ccccc1`: the IC50 was > 10 µM (inactive).

Turning to `O=S(=O)(/C(=C/c1ccc(C(F)(F)F)cc1)c1nc2ccccc2[nH]1)c1ccccc1`, the IC50 is 5.46 µM (inactive).

`S=C(Nc1ccccc1)Nc1ccc(OCc2ccc(Cl)cc2Cl)cc1`: the pIC50 is 6.48.

With `COC(=O)c1ccc2c(c1)C(C)(C)C(/C=C/c1ccc(OC)c(OC)c1OC)=[N+]2C`, the IC50 is 9.48 µM (inactive).

With `O=C(NC(c1ccccc1)c1c(O)ccc2ccccc12)c1ccccc1Cl` (configuration not stated), the IC50 was > 10 µM (inactive).

For `COc1ccc(C(=O)c2c(C(F)(F)F)oc3c2C(=O)c2ccccc2C3=O)cc1`, the IC50 was 9.46 µM (inactive).

As to `Cc1cc2c3c(c1)C(C)(c1ccccc1)CC(C)(C)N3C(=O)C21C(C#N)=C(N)OC2=C1C(=O)CC(C)(C)C2` (configuration not stated), the IC50 was > 10 µM (inactive).

Take `Fc1ccc(-n2nnnc2-c2cnc(-c3cccs3)nc2C(F)(F)F)cc1`: the IC50 was 6.67 µM (inactive).

Consider `O=C(Nc1ccc(Cl)cc1)Nc1ccc(N2CCCC2)c(S(=O)(=O)Nc2ccccc2Cl)c1`, for which the IC50 is 5.95 µM (inactive).

In the case of `Cc1ccc(-c2[nH]ncc2/C=N/n2c(COc3ccccc3)nc3ccccc3c2=O)cc1`, the IC50 is 3.18 µM (inactive).

Take `CS(=O)(=O)c1ccc(S(=O)CC(=O)OCc2ccccc2)c([N+](=O)[O-])c1` (configuration not stated): the IC50 was > 10 µM (inactive).
